{"source": "patent US20240358692A1", "about": "“TREATMENT OF SCLERODERMA” (Aisa Pharma, Inc., priority 2023, published 2024)", "key": {"[1]": {"test_system": "participants with SSc-RP", "test": "Frequency of weekly RP attacks (all attacks; primary endpoint), patient diary", "assay_type": "in vivo, human", "conditions": "ITT Part A", "from_the_text": "Percent change from baseline evaluation for frequency of weekly RP attacks were or will be used as the primary efficacy variable. The sponsor-developed participant-informed diary will be used to record data. Frequency of weekly RP attacks is defined as the total number of RP attacks divided by the number of days with available diary data within the last 7 days of each dosing period then multiplied by 7. Total number of RP attacks during the last 7 days of screening period divided by the number of days with available data then multiplied by 7 will be used as baseline for the analysis of all periods. The variable will be calculated as follows: […]\nPercent change from baseline evaluation for frequency of weekly RP attacks was and will be the primary efficacy endpoint. Frequency of weekly RP attacks is defined as the total number of RP attacks divided by the number of days with available diary data within the last 7 days of each dosing period then multiplied by 7. Total number of RP attacks during the last 7 days of screening period divided by the number of days with available data then multiplied by 7 will be used as baseline for the analysis of all periods."}, "[2]": {"test_system": "participants with SSc-RP", "test": "SHAQ - Visual Analog Scale - Overall Disease Severity", "assay_type": "in vivo, human", "conditions": "tadalafil 5 mg", "from_the_text": "The standard, validated, patient reported outcome measures tool for SSc patients, the Scleroderma Health Assessment Questionnaire (SHAQ), will be used to assess the participant qualify of life. Details are attached in the Appendix. The participant quality of life will be scored, and a disability index calculated for each questionnaire completed by the patient at Screening and each in-clinic visit. The absolute change in participant quality of life from baseline to the end of each dosing period will be calculated similar to frequency data as before.\nThe standard, validated, patient reported outcome measures tool for SSc patients, the SHAQ, was collected at the time points specified in the study schedules (FIG. 2 and FIGS. 4A and 4B) to assess the participant's quality of life. The SHAQ included a Raynaud's VAS that will also be reported separately."}, "[3]": {"conditions": "Tadalafil 5 mg, Baseline RCS stratum 2 (lower half of table)"}, "[4]": {"conditions": "tadalafil 5 mg daily, n=1, excluding outliers, last 7 days of dosing"}, "[5]": {"conditions": "tadalafil 5 mg daily, n=2, last 7 days of dosing"}}}
{"smiles": "CN1CC(=O)N2[C@H](c3ccc4c(c3)OCO4)c3[nH]c4ccccc4c3C[C@@H]2C1=O", "note": "[Tadalafil]", "values": [{"measurement": "Weekly RP Attacks (All Attacks) Change from Baseline, Mean", "setting": "[1]; [3]", "result": 3.00}, {"measurement": "Weekly RP Attacks (All Attacks) Change from Baseline, Median", "setting": "[1]; [3]", "result": 3.00}, {"measurement": "Weekly RP Attacks (All Attacks), Mean", "setting": "[1]; [3]", "result": 13.00}, {"measurement": "Weekly RP Attacks (All Attacks), Median", "setting": "[1]; [3]", "result": 13.00}, {"measurement": "Weekly RP Attacks (All Attacks) Change from Baseline, Mean", "setting": "[1]; [4]", "result": 6.00}, {"measurement": "Weekly RP Attacks (All Attacks) Change from Baseline, Median", "setting": "[1]; [4]", "result": 6.00}, {"measurement": "Weekly RP Attacks (All Attacks), Mean", "setting": "[1]; [4]", "result": 19.00}, {"measurement": "Weekly RP Attacks (All Attacks), Median", "setting": "[1]; [4]", "result": 19.00}, {"measurement": "Weekly RP Attacks (All Attacks) Change from Baseline, Mean", "setting": "[1]; [5]", "result": 3.00}, {"measurement": "Weekly RP Attacks (All Attacks) Change from Baseline, Median", "setting": "[1]; [5]", "result": 3.00}, {"measurement": "Weekly RP Attacks (All Attacks), Mean", "setting": "[1]; [5]", "result": 13.00}, {"measurement": "Weekly RP Attacks (All Attacks), Median", "setting": "[1]; [5]", "result": 13.00}, {"measurement": "VAS Overall Severity Change from Baseline Max", "setting": "[2]", "result": 2.40}, {"measurement": "VAS Overall Severity Change from Baseline Median", "setting": "[2]", "result": 0.700}, {"measurement": "VAS Overall Severity Change from Baseline Min", "setting": "[2]", "result": "−1.30"}, {"measurement": "VAS Overall Severity Change from Baseline Q1", "setting": "[2]", "result": "−0.600"}, {"measurement": "VAS Overall Severity Change from Baseline Q3", "setting": "[2]", "result": 1.850}, {"measurement": "VAS Overall Severity Day 12 Max", "setting": "[2]", "result": 9.10}, {"measurement": "VAS Overall Severity Day 12 Mean", "setting": "[2]", "result": 5.600}, {"measurement": "VAS Overall Severity Day 12 Min", "setting": "[2]", "result": 0.20}, {"measurement": "VAS Overall Severity Day 12 Q1", "setting": "[2]", "result": 2.200}, {"measurement": "VAS Overall Severity Day 12 Q3", "setting": "[2]", "result": 9.000}, {"measurement": "VAS Overall Severity Percent Change from Baseline Max", "setting": "[2]", "result": 100.0, "unit": "%"}, {"measurement": "VAS Overall Severity Percent Change from Baseline Min", "setting": "[2]", "result": "−23.6", "unit": "%"}, {"measurement": "VAS Overall Severity Percent Change from Baseline Q1", "setting": "[2]", "result": "−3.48", "unit": "%"}, {"measurement": "VAS Overall Severity Percent Change from Baseline Q3", "setting": "[2]", "result": 68.46, "unit": "%"}]}
